Earlier results as cited in US20110047631A1, “HEAT SHOCK PROTEIN DEFICIENCIES AS MODEL SYSTEMS FOR BRAIN PATHOLOGY AND CANCER” (Medical College of Georgia Research Institute Inc., priority 2009, published 2011).

What was measured:
[1] = test system: mouse models of Amyotrophic Lateral Sclerosis (ALS)
[2] = 8 mg/kg per mice daily dose

CC1=C(O)C(=O)C=C2C1=CC=C1[C@@]2(C)CC[C@@]2(C)[C@@H]3C[C@](C)(C(=O)O)CC[C@]3(C)CC[C@]12C [Celasterol]
expression of Hsps (Hsps): enhance the expression of Hsps
neuronal cell death and life span [1]: block neuronal cell death and extend the life of these mice
toxicity [2]: no toxicity
